One may read the IC50 as the concentration that inhibits the measured activity by half. As a reminder, the viability is a read-out of living cells in per cent, often relative to untreated cells. As a reminder, the GI50 is the concentration giving 50% growth inhibition.

Data set [1] deals with EGFR. The experiment in a line: Western blotting, EGFR level in A549 cells. In kind it is cell-based, human. The settings on record: untreated control OD 0.695.
Data set [2] has as its system pancreatic cancer (Panc-1) cell line. The experiment in a line: Antiproliferative assay, Panc-1. It is filed as cell-based. The settings on record: Homo sapiens, PANC-1, read-out: Antiproliferative activity IC50 ± SEM, Panc-1.
A further data set can be described thus: Cell viability assay. It is filed as cell-based. The conditions noted are these: human, MCF-10A mammary gland epithelial normal cells.
Data set [3] has as its system BRAF^V600E. The experiment in a line: Western blotting, BRAF^V600E level in A549 cells. In kind it is cell-based, human. The conditions noted are these: untreated control OD 0.507. (Immunoblotting shows a protein as a band on a membrane.)
Data set [4] relates to lung cancer (A-549) cell line. Nature of the data set: Antiproliferative assay, A-549. It is filed as cell-based. The conditions noted are these: Homo sapiens, A549, read-out: Antiproliferative activity IC50 ± SEM, A-549.
In another data set the test system is colon cancer (HT-29). Nature of the data set: Antiproliferative assay, HT-29. The conditions noted are these: Homo sapiens, HT-29, read-out: Antiproliferative activity IC50 ± SEM, HT-29. In kind it is cell-based.
In data set [5] the test system is four human cancer cell lines (A-549, MCF-7, Panc-1, HT-29). Nature of the data set: Antiproliferative assay, average over four cancer cell lines. It is filed as cell-based. The conditions noted are these: for GI50: Homo sapiens, read-out: Antiproliferative activity, Average (GI50); for Fold lower antiproliferative potency (GI50) than 9c: GI50 relative to 9c.
The test system of data set [6] is breast cancer (MCF-7) cell line. Nature of the data set: Antiproliferative assay, MCF-7. It is filed as cell-based. The settings on record: Homo sapiens, MCF7, read-out: Antiproliferative activity IC50 ± SEM, MCF-7.
The target in data set [7] is EGFR (Homo sapiens, UniProt P00533). The experiment in a line: EGFR-TK inhibitory assay. It is filed as biochemical.
Chain of EGFR (Homo sapiens, UniProt P00533) (P00533 669-1210): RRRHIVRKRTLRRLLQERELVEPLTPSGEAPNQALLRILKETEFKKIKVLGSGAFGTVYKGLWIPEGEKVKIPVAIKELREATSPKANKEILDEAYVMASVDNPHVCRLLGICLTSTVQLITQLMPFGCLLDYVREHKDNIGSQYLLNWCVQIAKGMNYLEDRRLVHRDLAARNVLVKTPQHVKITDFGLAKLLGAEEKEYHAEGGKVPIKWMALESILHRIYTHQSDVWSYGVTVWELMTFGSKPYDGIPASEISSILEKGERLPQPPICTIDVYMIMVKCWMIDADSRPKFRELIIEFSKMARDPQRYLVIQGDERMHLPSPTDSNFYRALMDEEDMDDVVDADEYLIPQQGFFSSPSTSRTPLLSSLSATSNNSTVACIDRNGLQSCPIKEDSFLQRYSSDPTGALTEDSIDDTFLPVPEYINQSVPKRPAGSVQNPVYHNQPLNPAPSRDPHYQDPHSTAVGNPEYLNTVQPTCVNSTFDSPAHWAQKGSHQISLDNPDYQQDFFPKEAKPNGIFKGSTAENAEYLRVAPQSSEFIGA
Data set [8] concerns the target BRAF^V600E (Mus musculus, UniProt P28028, V585E). The experiment in a line: BRAF^V600E inhibitory assay. It is filed as biochemical.
Data set [9] relates to VEGFR-2. The experiment in a line: Western blotting, VEGFR-2 level in A549 cells. It is filed as cell-based, human. The conditions noted are these: untreated control OD 0.662.
In data set [10] the target is VEGFR-2 (Homo sapiens, UniProt P35968). Nature of the data set: VEGFR-2 inhibitory assay. It is filed as biochemical.
Chain of VEGFR-2 (Homo sapiens, UniProt P35968) (P35968 20-1356): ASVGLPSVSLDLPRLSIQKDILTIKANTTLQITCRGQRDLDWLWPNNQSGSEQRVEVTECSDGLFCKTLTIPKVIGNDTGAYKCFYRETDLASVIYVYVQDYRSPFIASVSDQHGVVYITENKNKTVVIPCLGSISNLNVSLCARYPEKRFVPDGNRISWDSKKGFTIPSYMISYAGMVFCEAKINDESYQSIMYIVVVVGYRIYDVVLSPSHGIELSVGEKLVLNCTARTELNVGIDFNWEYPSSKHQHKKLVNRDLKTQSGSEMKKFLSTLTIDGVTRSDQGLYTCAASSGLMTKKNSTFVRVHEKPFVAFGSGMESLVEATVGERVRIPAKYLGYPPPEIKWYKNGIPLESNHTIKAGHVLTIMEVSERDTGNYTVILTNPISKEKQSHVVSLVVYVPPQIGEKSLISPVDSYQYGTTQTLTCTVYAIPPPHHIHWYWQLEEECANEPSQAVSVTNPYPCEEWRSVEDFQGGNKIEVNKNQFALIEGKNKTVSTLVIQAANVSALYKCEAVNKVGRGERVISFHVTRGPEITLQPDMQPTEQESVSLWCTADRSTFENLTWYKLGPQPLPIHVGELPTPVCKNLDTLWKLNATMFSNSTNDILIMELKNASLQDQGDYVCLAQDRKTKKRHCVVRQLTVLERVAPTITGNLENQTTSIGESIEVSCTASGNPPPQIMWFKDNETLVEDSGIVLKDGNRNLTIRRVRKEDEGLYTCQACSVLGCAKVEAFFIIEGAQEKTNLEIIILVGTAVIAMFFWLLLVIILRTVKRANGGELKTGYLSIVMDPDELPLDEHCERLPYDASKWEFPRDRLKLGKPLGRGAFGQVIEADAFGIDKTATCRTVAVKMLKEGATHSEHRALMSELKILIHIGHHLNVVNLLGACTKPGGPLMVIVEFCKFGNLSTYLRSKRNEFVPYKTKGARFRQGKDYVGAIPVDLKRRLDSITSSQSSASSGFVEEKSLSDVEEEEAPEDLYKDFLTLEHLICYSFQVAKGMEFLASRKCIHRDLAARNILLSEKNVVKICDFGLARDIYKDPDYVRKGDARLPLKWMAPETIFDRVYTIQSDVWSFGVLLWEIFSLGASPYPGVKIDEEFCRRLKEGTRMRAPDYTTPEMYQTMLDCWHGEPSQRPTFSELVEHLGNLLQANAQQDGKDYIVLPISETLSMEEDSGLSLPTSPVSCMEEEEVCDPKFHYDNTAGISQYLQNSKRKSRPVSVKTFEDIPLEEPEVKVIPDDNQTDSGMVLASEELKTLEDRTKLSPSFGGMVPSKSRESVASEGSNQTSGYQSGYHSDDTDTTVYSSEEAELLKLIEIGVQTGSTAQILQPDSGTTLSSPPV

Chain of BRAF^V600E (Mus musculus, UniProt P28028, V585E) (P28028 whole entry V585E): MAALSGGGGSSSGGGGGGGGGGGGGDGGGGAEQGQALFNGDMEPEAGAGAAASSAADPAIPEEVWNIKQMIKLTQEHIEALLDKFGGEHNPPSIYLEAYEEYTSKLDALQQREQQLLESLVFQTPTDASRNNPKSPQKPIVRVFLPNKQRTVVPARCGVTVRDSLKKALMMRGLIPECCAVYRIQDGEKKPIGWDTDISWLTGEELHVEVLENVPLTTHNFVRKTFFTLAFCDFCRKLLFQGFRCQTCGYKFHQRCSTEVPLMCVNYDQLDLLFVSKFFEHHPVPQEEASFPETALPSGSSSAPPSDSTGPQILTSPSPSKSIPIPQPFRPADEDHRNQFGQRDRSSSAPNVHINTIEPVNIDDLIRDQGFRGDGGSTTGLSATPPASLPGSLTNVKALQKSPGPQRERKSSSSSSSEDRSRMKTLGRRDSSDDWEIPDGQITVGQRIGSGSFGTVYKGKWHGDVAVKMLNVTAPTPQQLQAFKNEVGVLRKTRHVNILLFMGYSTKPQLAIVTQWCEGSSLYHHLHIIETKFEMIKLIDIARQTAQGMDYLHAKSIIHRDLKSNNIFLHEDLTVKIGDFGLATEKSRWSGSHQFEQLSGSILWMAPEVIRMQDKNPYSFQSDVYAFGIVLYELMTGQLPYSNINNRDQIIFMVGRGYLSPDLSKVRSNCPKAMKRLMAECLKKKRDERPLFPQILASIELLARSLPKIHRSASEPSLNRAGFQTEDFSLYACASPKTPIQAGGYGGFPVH

As to `Br.c1ccc(C2=NN/C(=N/C3CCCCC3)SC2)cc1` [Compound 9c, (Z)-N-(5-Phenyl-3,6-dihydro-2H-1,3,4-thiadiazin-2-ylidene) cyclohexanaminium bromide], the “Western blotting OD, EGFR” value with EGFR [1] is 0.288. In addition, the IC50 was 0.038 ± 0.003 µM in data set [2]; 0.037 ± 0.003 µM in [4]; 0.04 ± 0.004 µM with colon cancer (HT-29); 0.035 ± 0.003 µM in data set [6]; 0.086 ± 0.005 µM at EGFR [7]; 0.074 ± 0.005 µM on BRAF^V600E [8]. Moreover, the IC50 against VEGFR-2 [10] came to 0.0022 ± 2e-05 µM. The same compound returned a viability at 96 h, 50 µM in the data set “Cell viability assay” of 92%. Also, the “Western blotting OD, BRAF^V600E” value with BRAF^V600E [3] was found to be 0.219. In addition, the GI50 in data set [5] came to 0.038 µM. Further, the “Western blotting OD, VEGFR-2” value in the data set on VEGFR-2 [9] was 0.346.

Consider `Brc1ccc(C2=NN/C(=N/C3CCCCC3)SC2)cc1` [Compound 9g, (Z)-N-(5-(4-Bromophenyl)-3,6-dihydro-2H-1,3,4-thiadiazin-2-ylidene) cyclohexanaminium bromide], for which the IC50 was determined as 0.056 ± 0.005 µM in data set [2], 0.054 ± 0.005 µM in data set [4], 0.056 ± 0.005 µM in the data set on colon cancer (HT-29) and 0.051 ± 0.005 µM in data set [6]. For the same compound, the viability at 96 h, 50 µM in “Cell viability assay” turned out to be 88%. Further, in [5], the GI50 came to 0.054 µM.

For `Br.C=CC/N=C1/NN=C(c2ccccc2)CS1` [Compound 9b, (Z)-N-(5-Phenyl-3,6-dihydro-2H-1,3,4-thiadiazin-2-ylidene)prop-2-en-1-aminium bromide], the IC50 in data set [2] stood at 0.058 ± 0.005 µM; in data set [4], 0.056 ± 0.005 µM; in the data set on colon cancer (HT-29), 0.058 ± 0.005 µM; in data set [6], 0.052 ± 0.005 µM. The same compound yielded a viability at 96 h, 50 µM in the data set “Cell viability assay” of 90%. In data set [5], the “Fold lower antiproliferative potency (GI50) than 9c” value stood at 1.5 fold. The GI50 in data set [5] turned out to be 0.056 µM.

Turning to `Br.c1ccc(NC2=NN=C(c3ccccc3)CS2)cc1` [Compound 9a, 5-Phenyl-2-(phenylamino)-6H-1,3,4-thiadiazin-3-ium bromide], the IC50 in data set [2] turned out to be 0.044 ± 0.004 µM; in data set [4] it was 0.043 ± 0.004 µM; with colon cancer (HT-29), 0.044 ± 0.004 µM; in [6] it was 0.04 ± 0.004 µM; against EGFR [7] it was 0.092 ± 0.007 µM; against BRAF^V600E [8], 0.083 ± 0.006 µM. The same compound came in with an IC50 at VEGFR-2 [10] of 0.0028 ± 2e-05 µM. In the data set “Cell viability assay”, the viability at 96 h, 50 µM turned out to be 91%. Besides, the “Fold lower antiproliferative potency (GI50) than 9c” value in [5] was found to be 1.2 fold. Further, the GI50 in data set [5] worked out at 0.043 µM.

Turning to `Brc1ccc(C2=NN=C(Nc3ccccc3)SC2)cc1` [Compound 9d, 5-(4-Bromophenyl)-2-(phenylamino)-6H-1,3,4-thiadiazin-3-ium bromide], the IC50 worked out at 0.048 ± 0.004 µM in [2]; 0.048 ± 0.004 µM in data set [4]; 0.047 ± 0.004 µM in the data set on colon cancer (HT-29); 0.044 ± 0.004 µM in [6]; 0.096 ± 0.007 µM against EGFR [7]; 0.088 ± 0.006 µM against BRAF^V600E [8]. The same compound yielded an IC50 against VEGFR-2 [10] of 0.00325 ± 3e-05 µM. In the data set “Cell viability assay”, this compound displayed a viability at 96 h, 50 µM of 89%. Also, the GI50 in data set [5] amounted to 0.047 µM.

Regarding `C/N=C1/NN=C(c2ccc(Br)cc2)CS1` [Compound 9e, (Z)-N-(5-(4-Bromophenyl)-3,6-dihydro-2H-1,3,4-thiadiazin-2-ylidene) methanaminium bromide], the IC50 in [2] was found to be 0.064 ± 0.006 µM; in [4] it was 0.062 ± 0.006 µM; in the data set on colon cancer (HT-29) it was 0.064 ± 0.006 µM; in data set [6], 0.058 ± 0.005 µM. In the data set “Cell viability assay”, this compound gave a viability at 96 h, 50 µM of 92%. In data set [5], the GI50 is 0.062 µM.

Consider `C#Cc1cccc(Nc2ncnc3cc(OCCOC)c(OCCOC)cc23)c1` [Erlotinib, reference compound], for which the IC50 in data set [2] is 0.03 ± 0.003 µM; in [4] it was 0.03 ± 0.003 µM; in the data set on colon cancer (HT-29) it was 0.03 ± 0.003 µM; in [6], 0.04 ± 0.003 µM.

Turning to `CC/N=C1/NN=C(c2ccc(Br)cc2)CS1` [Compound 9f, (Z)-N-(5-(4-Bromophenyl)-3,6-dihydro-2H-1,3,4-thiadiazin-2-ylidene)ethan aminium bromide], the IC50 was 0.066 ± 0.006 µM in [2], 0.065 ± 0.006 µM in data set [4], 0.066 ± 0.006 µM in the data set on colon cancer (HT-29) and 0.064 ± 0.006 µM in data set [6]. In “Cell viability assay”, this compound registered a viability at 96 h, 50 µM of 89%. The GI50 in data set [5] was 0.066 µM.

For the origin of these results see PMC11208997 (RSC Advances, 2024).
